Among the data in ChEMBL document CHEMBL1157539, “Thousands of chemical starting points for antimalarial lead identification” (Nature, 2010) are XC50 values, retold here.

Molecules are shown by their SMILES.

The test system of the test is Plasmodium falciparum. Description: GSK_TCMDC: Inhibition of Plasmodium falciparum 3D7 in whole erythrocytes, using parasite LDH activity as an index of growth. The class given is functional, organism-based. The settings on record: Plasmodium falciparum, 3D7.
For the compound `COc1ccc2c(N/N=C/c3cccc([N+](=O)[O-])c3)ccnc2c1`, the XC50 amounted to 0.846 µM. Compound `CCN1CCC(N(Cc2ccc(-c3ccc(C(F)(F)F)cc3)cc2)C(=O)Cn2c(CCc3cccc(F)c3F)cc(=O)c3ccc(OCc4ccccc4)cc32)CC1` returned an XC50 of 0.368 µM. With `CC(C)(C)NCc1cc(Nc2ccnc3cc(Cl)ccc23)ccc1F`, the XC50 stood at 0.0303 µM. Turning to `O=C(Nc1ccccc1)Nc1cccc(-c2nn3c(OCC4CCCCN4)cccc3c2-c2ccncc2)c1` (centres undefined), the XC50 turned out to be 0.858 µM.

`Cc1cccc2nc(-c3cccc(-c4ccc(NC(=O)NC5CC5c5ccccc5)cc4)c3)[nH]c12` (centres undefined) gave an XC50 of 0.719 µM. For the compound `COc1ccc(N2CCN(CCCCNC(=O)c3ccc(NC(=O)c4cc(C(F)(F)F)cc(C(F)(F)F)c4)cc3)CC2)c(OC)c1`, the XC50 came out at 0.153 µM. In turn, `COc1ccc(CN2CCC(Oc3cccc(NC(=O)c4ccc(C(F)(F)F)cc4)c3)CC2)cc1` gave an XC50 of 0.743 µM.

On to `Cc1[nH]c(C)c(-c2cc3ccccc3o2)c(=O)c1Cl`, for which the XC50 was determined as 1.72 µM. In the case of `COc1cc(C2CCN(CCCCNC(=O)c3ccc(NC(=O)c4cc(C(F)(F)F)cc(C(F)(F)F)c4)cc3)CC2)ccc1OC(C)C` it was 0.154 µM. `O=C(O)C1Cc2c([nH]c3ccccc23)C(c2ccc(Cl)cc2Cl)N1` (centres undefined): the XC50 was determined as 0.954 µM. `COc1cccc(CNC(=O)c2ccnc(-c3cccc(CN(C)C4CCN(C)CC4)c3)c2)c1` showed an XC50 of 0.834 µM. The compound `COc1ccc(Nc2ccnc3cc(-c4ccccn4)ccc23)cc1OC` showed an XC50 of 0.0318 µM. Turning to `COc1ccc(S(=O)(=O)NC2CCN(c3ccc(C(F)(F)F)cc3NC(=O)OCC(C)C)CC2)cc1`, the XC50 is 1.22 µM.

On to `COc1ccc2ncc(F)c([C@H](O)CN3CCC(NCc4ccc5c(c4)NC(=O)CO5)CC3)c2c1`, for which the XC50 was determined as 0.172 µM. In the case of `Cc1cccn2c(=O)c3cc(C(=O)NCc4cccnc4)c(=N)n(CCc4ccccc4)c3nc12`, the XC50 worked out at 0.714 µM. The figure for `O=C(NCC1CCC(C(=O)NCCc2ccc(Cl)c(Cl)c2)CC1)c1ccc(O)c(-c2ccc(Cl)c(Cl)c2)c1` (centres undefined) is 0.895 µM.

On to `Cc1cc(=O)[nH]c(-n2nc(C)cc2NC(=O)C(c2ccccc2)c2ccccc2)n1`, for which the XC50 was 0.839 µM. Compound `N=C(N)NN=C1C=Cc2cccc3cccc1c23` showed an XC50 of 0.609 µM. `O=C(/C=C/c1ccc(Cl)cc1)NCCCCCN1CCCC(C(=O)Nc2cccc(Cl)c2)C1` (centres undefined) displayed an XC50 of 0.208 µM.

`c1ccc(CCNCc2ccc(-c3ccc(CNC4CCN(Cc5ccccc5)CC4)cc3)nc2)cc1` came in with an XC50 of 0.446 µM. The figure for `COc1cc(Nc2nccc(N3CCC(NC(=O)c4cccc(NC(C)=O)c4)C3)n2)cc(OC)c1OC` (centres undefined) is 0.828 µM; for `CCCCCCN1CCC(NCc2ccc(OCCN3CCCC3)cc2)CC1` it is 0.719 µM; for `Cc1cc(N2CCC(NS(=O)(=O)c3ccc(F)cc3)CC2)nc(Nc2cccc(C#N)c2)n1` it is 0.651 µM. Regarding `COc1ccc2[nH]ccc(=NN=Cc3ccc(Cl)cc3)c2c1`, the XC50 was 0.211 µM. In turn, `COc1ccc(-c2ccc(NC(=O)c3cccc(Cl)c3)cc2)cc1CN1CCN(C)CC1` had an XC50 of 0.951 µM.

As for `Cc1cccc2nc(-c3ccc(-c4cccc(CN5CCN(c6ccncc6)CC5)c4)s3)[nH]c12`, the XC50 was 0.126 µM. `COc1ccc(Cl)cc1NC(=O)Nc1ccnc2ccccc12` registered an XC50 of 0.675 µM. In turn, `COc1cc(OC)cc(-c2nn(-c3ccc([N+](=O)[O-])cc3C#N)c(=S)n2CC2CCCO2)c1` (centres undefined) displayed an XC50 of 0.852 µM. In turn, `O=C(Nc1ccccc1)N1CCOC(CCN2CCC(F)(F)CC2)(c2ccc(Cl)c(Cl)c2)C1` (centres undefined) showed an XC50 of 0.185 µM. As for `COc1cc(CNC[C@@H](O)[C@H](Cc2ccccc2)NC(=O)c2cc(OC(C)C)cc(N3CCCCS3(=O)=O)c2)cc(OC)c1`, the XC50 amounted to 0.59 µM.

In the case of `O=C(Nc1cccc(-c2ccc(-c3nc4cc(C(F)(F)F)ccc4[nH]3)cc2)c1)Nc1ccc(Cl)c(Cl)c1`, the XC50 is 0.889 µM. In the case of `Cc1cccc(C)c1N1CCN(C2CCC(NC(=O)/C=C/c3ccccc3)CC2)CC1` (centres undefined), the XC50 was 1.18 µM. In turn, `Cn1ncc2c3c(CCN4CCC(NCc5ccc6c(c5)NC(=O)CO6)CC4)c(Cl)cnc3ccc21` showed an XC50 of 0.488 µM. For the compound `N=C(N)NN=Cc1c2ccccc2c(Cl)c2c(Cl)cccc12`, the XC50 came out at 0.878 µM. `COc1ccc(OCC(=O)Nc2nc(-c3ccc(OC)cc3)c(C)s2)cc1` displayed an XC50 of 1.95 µM. In the case of `Cc1cc(N(CCCN(C)C)Cc2cc(F)cc(F)c2)nc(Nc2ccc(Cl)cc2)n1` it was 0.536 µM.

`CNC(=O)Cc1ccc(C(=O)Nc2cccc(-c3cccc(-c4nc5cc(C(F)(F)F)ccc5[nH]4)c3)c2)cc1` displayed an XC50 of 0.44 µM. On to `OC(CNC1CCCCC1)c1ccc(Cl)c(Cl)c1` (centres undefined), for which the XC50 was found to be 0.698 µM. Compound `COc1ccc2nccc([C@@H](O)CN3CCC(NC(=O)/C=C/c4c[nH]c5c(C)cccc45)CC3)c2c1` had an XC50 of 0.135 µM.

For `NC(=O)c1ccccc1Nc1nc(Nc2cc[nH]n2)ncc1Cl`, the XC50 stood at 0.958 µM. `Cc1[nH]c2cc(F)ccc2c1C1=CCN(CCCCC2(C)C(=O)Nc3ccccc32)CC1` (centres undefined) showed an XC50 of 0.292 µM. Consider `COc1ccc(C2CCN(CCN3CCC(NC(=O)c4ccc(-c5cccc(C(F)(F)F)c5C(F)(F)F)cc4)CC3)CC2)c(OC)c1`, for which the XC50 was 0.419 µM. As for `Cc1cc(NCCc2ccccc2)nc(N/C(=N/CC(=O)OC(C)(C)C)Nc2ccc(C(F)(F)F)cc2)n1`, the XC50 is 0.335 µM. `O=C(Nc1ccc(OC2CCN(Cc3ccsc3)C2)c(Cl)c1)c1ccc(F)cc1` (centres undefined) yielded an XC50 of 0.943 µM. `CC(C)c1ccc(-c2noc(SCC(=O)N(C)c3ccc(F)cc3)n2)cc1` displayed an XC50 of 1.17 µM. `O=C(NCCN1CCCC1)c1ccc(-c2cccc(-c3nc4cc(F)ccc4[nH]3)c2)cc1` registered an XC50 of 0.774 µM. Regarding `Cc1nnsc1C(=O)Nc1cccc(-c2csc(-c3nc4ccccc4[nH]3)c2)c1`, the XC50 was found to be 0.351 µM. `COc1ccc2c(c1)CCN(CCN1CCC(CNC(=O)c3ccc(-c4ccc(C#N)cc4)cc3)CC1)C2` returned an XC50 of 0.617 µM. The figure for `CCN(CCO)CCc1cccc(Nc2nccc(-c3c(-c4ccc(NC(=O)C(C)(C)C)cc4)nn4ccccc34)n2)c1` is 0.714 µM; for `COc1cc(N)c(Cl)cc1C(=O)NCC1CCN(c2nc(C)cc(C)n2)CC1` it is 0.509 µM. Compound `O=C(Nc1cc(Cl)ccc1O)c1ccc(Oc2ccc(C(=O)Nc3cc(Cl)ccc3O)cc2)cc1` returned an XC50 of 0.92 µM. With `CC[C@H]1CN2CC[C@H]1C[C@H]2[C@H](O)c1cc(-c2cccc(C)c2)nc2ccc(OC)cc12`, the XC50 was determined as 0.163 µM. `C=Cc1cc(OC)c2c(c1)c(=O)oc1c2cc(OC)c2c(O)ccc([C@H]3O[C@H]([C@H](C)O)[C@H](O)[C@H]3O)c21` returned an XC50 of 0.794 µM. `Cc1cc(=NN=Cc2ccccc2Cl)c2cc(C(F)(F)F)ccc2[nH]1` returned an XC50 of 0.858 µM. `FC(F)(F)c1cc(Nc2ncnc3ccc(Br)cc23)ccc1OCc1ccccc1` had an XC50 of 1.08 µM. Compound `Cc1[nH]c(C)c(-c2cccc(-c3ccc(OC(F)(F)F)cc3)c2)c(=O)c1Br` registered an XC50 of 0.41 µM. Turning to `O=C(Nc1cccc(OCCN2CCCC2)c1)Nc1ccc(Cl)c(Cl)c1`, the XC50 turned out to be 0.775 µM.

Take `COc1ccc(CCNCC(O)COc2nccc3c(S(=O)(=O)N4CCCNCC4)cccc23)cc1OC` (centres undefined): the XC50 came to 0.269 µM. For the compound `COc1ccc(C(=O)Nc2nonc2-c2ccc(OC)c(OC)c2)cc1Cl`, the XC50 stood at 0.675 µM. Turning to `CC(C)(C)OC(=O)Cn1cnc2cc(NC(=O)c3cc([N+](=O)[O-])cc([N+](=O)[O-])c3)ccc21`, the XC50 came to 0.312 µM. Take `O=c1cnc2ccc(F)cc2n1CCN1CCC(NCc2cc(-c3ccccc3)cs2)CC1`: the XC50 is 0.863 µM. On to `CCc1cn2c3c(cc(C(=O)N[C@@H](Cc4ccccc4)[C@H](O)CNC(C)(C)c4cccc(OC)c4)cc13)N(C)S(=O)(=O)C2`, for which the XC50 is 0.0617 µM.

`c1cncc(-c2cc(N3CCc4ccccc4C3)nc(-c3ccncc3)n2)c1` displayed an XC50 of 0.0409 µM. In the case of `COc1cc(C(=O)Nc2cccc(-c3cn4ccc(C)cc4n3)c2)cc(OC)c1OC` it was 0.761 µM. Consider `N=C(N)NN=Cc1cc2ccccc2c2ccccc12`, for which the XC50 worked out at 0.18 µM. On to `CCOc1cc(C)ccc1N1CCN(CCN2CCC(NC(=O)c3ccc(-c4ccc(C#N)cc4)cc3)CC2)CC1`, for which the XC50 stood at 1.43 µM. The figure for `c1ccc2[nH]c(-c3ccc(-c4ccc(CNCC5CCCO5)cc4)s3)nc2c1` (centres undefined) is 0.869 µM. In the case of `CC(=O)c1ccc2cc(C(=O)NC3CCC(CCN4CCc5ccc(-c6noc(C)n6)cc5CC4)CC3)[nH]c2c1` (centres undefined) it was 0.946 µM; in that of `COC(=O)Nc1ccc(-c2ccc(C(=O)NC3CCN(C[C@H](O)c4ccnc5ccc(OC)cc45)CC3)cc2)c(C)c1`, 0.685 µM. Regarding `Brc1ccsc1-c1nc(NCCC(c2ccccc2)c2ccccc2)no1`, the XC50 was 1.08 µM. For `Cn1nccc1C(=O)NCCNCc1cccc(-c2ccc(-c3nc4cc(C(F)(F)F)ccc4[nH]3)cc2)c1`, the XC50 is 0.122 µM. The compound `COCCNCc1cccc(-c2cccc(CN(C(=O)Nc3ccccc3)C3CCN(Cc4ccccc4)CC3)c2)c1` came in with an XC50 of 0.126 µM. Compound `O=C(NCCCc1ccccc1)c1csc(C2CCCN(C(=O)c3ccc(O)c(-c4cccc5ccccc45)c3)C2)n1` (centres undefined) showed an XC50 of 0.967 µM. The compound `Cc1cc(N(C)C2CCN(C)C2)nc(Nc2ccccc2Cl)n1` (centres undefined) displayed an XC50 of 0.754 µM. `CCCNCc1ccc(-c2ccc(CN(CCOC)C(=O)c3cscn3)cc2)nc1`: the XC50 was determined as 0.178 µM. In turn, `O=C(/C=C/c1ccc(Cl)c(Cl)c1)NCCCCCN1CCC(CCNC(=O)Cc2ccc(Cl)cc2)CC1` yielded an XC50 of 1.16 µM.

`CN(c1ccc(NC(=O)Nc2cc(C(C)(C)C)on2)cc1)c1ccnc(NCCN2CCOCC2)n1`: the XC50 is 1.12 µM. Turning to `Cc1ccc(NC(=O)NC2CCN(c3ccnc4cc(Cl)ccc34)CC2)cc1`, the XC50 amounted to 0.315 µM. `OCc1ccc(-c2cncc(Nc3cccc(Cl)c3)c2)cc1`: the XC50 is 0.0743 µM. `Cc1nc(N)nc(N)c1Oc1cccc(Cl)c1`: the XC50 is 0.871 µM. For the compound `O=C(/C=C/c1ccc(Cl)c(Cl)c1)NCCCCCN1CCC(NC(=O)Nc2ccc(F)c(Cl)c2)CC1`, the XC50 amounted to 0.619 µM. As to `O=C(Nc1cccc(CN2CCCN(Cc3cccc(Cl)c3)CC2)c1)c1ccc(Cl)c(Cl)c1`, the XC50 is 0.992 µM. Consider `Cc1ccc(S(=O)(=O)c2nc(S(=O)(=O)c3ccccc3)sc2NCC2CCCO2)cc1` (centres undefined), for which the XC50 is 1.02 µM. The figure for `O=S(=O)(Nc1cccc(CCN2CCC(N3CCCCC3)CC2)c1)c1ccc(Cl)cc1` is 0.916 µM.
